Measured values taken from ChEMBL document CHEMBL5126664, “Anti-Epstein-Barr Viral Agents from the Medicinal Herb-Derived Fungus Alternaria alstroemeriae Km2286” (J Nat Prod, 2022).

Tests used:
Human gammaherpesvirus 4 [1] = test: Antiviral activity against EBV infected in P3HR1 cells assessed as decrease in Rta cells at 10 uM measured after 24 hrs by Western blot analysis relative to control; type: functional; conditions: human gammaherpesvirus 4, P3HR-1
BV-2 [2] = test: Antiinflammatory activity in mouse BV2 cells assessed as reduction in LPS-induced nitric oxide production at 10 uM by colorimetric assay relative to control; type: functional
[3] = Cytotoxicity against human P3HR1 cells; type: toxicity, cell-based, P3HR-1
Human gammaherpesvirus 4 [4] = test: Antiviral activity against EBV infected in P3HR1 cells assessed as decrease in viral replication; type: functional, organism-based; conditions: human gammaherpesvirus 4, P3HR-1
BV-2 [5] = test: Antiinflammatory activity in mouse BV2 cells assessed as reduction in LPS-induced nitric oxide production by colorimetric assay; type: functional, cell-based
[6] = Selectivity index, ratio of CC50 for human P3HR1 cells to EC50 for EBV; type: toxicity; conditions: read-out: Ratio CC50/EC50

| SMILES | inhibition at 10 µM (Human gammaherpesvirus 4 [1]) [%] | inhibition at 10 µM (BV-2 [2]) [%] | CC50 [3] [µM] | EC50 (Human gammaherpesvirus 4 [4]) [nM] | IC50 (BV-2 [5]) [nM] | selectivity ratio [6] |
| --- | --- | --- | --- | --- | --- | --- |
| CC[C@H](C)[C@H]1NC(=O)C(C(C)=O)=C1O | -5 | 41.1 |  |  |  |  |
| CO[C@H]1c2c3c4c(c(O)ccc4c4ccc(O)c(c24)[C@@H](O)[C@H]1O)C(=O)C=C3 | 100 | 105 | 60.1 | 1210 | 2730 | 49.7 |
| O=C1C=Cc2c3c4c(c(O)ccc4c4ccc(O)c1c24)[C@@H](O)[C@@H](Cl)[C@H]3O | 100 | 94.9 | 39.4 | 1510 | 730 | 26.1 |
| O=C1C[C@H](SCC(O)C(=O)O)[C@@]2(O)c3c(ccc(O)c31)-c1ccc(O)c3c1[C@@H]2[C@@H](Cl)[C@H](O)[C@@H]3O (stereo partly drawn) | 100 | 102 | 2.3 | 170 | 330 | 13.5 |
| O=C1C=Cc2c3c4c(c(O)ccc4c4ccc(O)c1c24)[C@@H](O)[C@H](Cl)[C@@H]3O | 100 | 76.2 | > 100 | 3130 | 2060 | > 32 |
| O=C1C=Cc2c3c4c(c(O)ccc4c4ccc(O)c1c24)[C@@H](O)[C@H](O)[C@@H]3O | 100 | 20.2 | 86.1 | 1340 |  | 64.3 |
| O=C1C[C@H](O)[C@H]2c3ccc(O)c4c3[C@H](c3ccc(O)c1c32)[C@@H](O)[C@@H](Cl)[C@@H]4O | 100 | 92.1 | 61.2 | 2420 | 4080 | 25.3 |
| COc1cc(/C=C/C(=O)CC(=O)/C=C/c2ccc(O)c(OC)c2)ccc1O [CURCUMIN] |  |  |  |  | 2690 |  |
| O=C1C[C@@H](O)[C@@H]2c3ccc(O)c4c3[C@@H](c3ccc(O)c1c32)[C@H](O)CC4=O [STEMPHYPERYLENOL] | 34 | 77.4 |  |  | 3250 |  |
| CC[C@H](C)[C@@H]1NC(=O)C(C(C)=O)=C1O [TENUAZONIC ACID] | 23 | 62.9 |  |  |  |  |
